# Results reported in US20110039721A1, “METHOD FOR PREDICTION ABOUT CARCINOGENICITY OF SUBSTANCE IN RODENT” (Chemicals Evaluation and Research Institute, priority 2007, published 2011).
# What was measured:
# [1] = tested on: mRNA expressed from the genes (A) to (D) in rat liver; assay: Behavior of genes (mRNA expression level, oligo-DNA microarray) in rat liver after 28-day oral administration; assay type: in vivo; conditions: rat liver, oral once daily 28 days
# How it was run: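 Groups of four male F344 SPF rats aged 5 weeks are gavaged once a day for 28 days with test chemical in solvent or with solvent alone at equal volume. Total RNA comes from liver taken on day 28. Fold change of 1.5 or 1/1.5 versus control, directionally consistent, defines significance.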
# liver = conditions: in vivo; cited from earlier work
# rodent = conditions: in vivo; cited from earlier work
# [2] = (C), Unigene Rn.120914, defined direction +
structure (smiles),measurement,setting,value
"c1ccoc1 [TS028, Furan]","Behavior of gene caused by administration of chemical substance, Gene No. 4846","[1]; (A), Unigene Rn.144554, defined direction +",+
same,"Behavior of gene caused by administration of chemical substance, Gene No. 4218","[1]; (A), Unigene Rn.167075, defined direction +, significant = 1.5 times or more or 1/1.5 or less of control",+
same,"Behavior of gene caused by administration of chemical substance, Gene No. 2026","[1]; (A), Unigene Rn.167075, defined direction −",+
same,"Behavior of gene caused by administration of chemical substance, Gene No. 6182","[1]; (A), Unigene Rn.5834, defined direction +",+
same,"Behavior of gene caused by administration of chemical substance, Gene No. 5600","[1]; (A), Unigene Rn.9836, defined direction +",+
same,"Behavior of gene caused by administration of chemical substance, Gene No. 1494","[1]; (B), Unigene Rn.1430, defined direction −",+
same,"Behavior of gene caused by administration of chemical substance, Gene No. 2045","[1]; (B), Unigene Rn.19329, defined direction +",−
same,"Behavior of gene caused by administration of chemical substance, Gene No. 2203","[1]; (B), Unigene Rn.21240, defined direction +",−
same,"Behavior of gene caused by administration of chemical substance, Gene No. 533","[1]; (C), Unigene Rn.106184, defined direction +",+
same,"Behavior of gene caused by administration of chemical substance, Gene No. 725","[1]; (C), Unigene Rn.108075, defined direction −",−
same,"Behavior of gene caused by administration of chemical substance, Gene No. 1163","[1]; (C), Unigene Rn.11766, defined direction +",−
same,"Behavior of gene caused by administration of chemical substance, Gene No. 4973","[1]; (C), Unigene Rn.118529, defined direction −",+
same,"Behavior of gene caused by administration of chemical substance, Gene No. 4095","[1]; (C), Unigene Rn.119024, defined direction −",+
same,"Behavior of gene caused by administration of chemical substance, Gene No. 1334",[1]; [2],−
same,"Behavior of gene caused by administration of chemical substance, Gene No. 6620",[1]; [2],−
same,"Behavior of gene caused by administration of chemical substance, Gene No. 6303","[1]; (C), Unigene Rn.123063, defined direction −",+
same,"Behavior of gene caused by administration of chemical substance, Gene No. 5878","[1]; (C), Unigene Rn.143213, defined direction −",+
same,"Behavior of gene caused by administration of chemical substance, Gene No. 1131","[1]; (C), Unigene Rn.144946, defined direction −",−
same,"Behavior of gene caused by administration of chemical substance, Gene No. 1562","[1]; (C), Unigene Rn.14744, defined direction −",+
same,"Behavior of gene caused by administration of chemical substance, Gene No. 1741","[1]; (C), Unigene Rn.1647, defined direction −",+
same,"Behavior of gene caused by administration of chemical substance, Gene No. 893","[1]; (C), Unigene Rn.164817, defined direction +",−
same,"Behavior of gene caused by administration of chemical substance, Gene No. 6026","[1]; (C), Unigene Rn.167685, defined direction −",−
same,"Behavior of gene caused by administration of chemical substance, Gene No. 154","[1]; (C), Unigene Rn.185941, defined direction −",+
same,"Behavior of gene caused by administration of chemical substance, Gene No. 1993","[1]; (C), Unigene Rn.18728, defined direction −",+
same,"Behavior of gene caused by administration of chemical substance, Gene No. 813","[1]; (C), Unigene Rn.201760, defined direction +",+
same,"Behavior of gene caused by administration of chemical substance, Gene No. 2494","[1]; (C), Unigene Rn.23969, defined direction +",−
same,"Behavior of gene caused by administration of chemical substance, Gene No. 2546","[1]; (C), Unigene Rn.24561, defined direction −",−
same,"Behavior of gene caused by administration of chemical substance, Gene No. 3776","[1]; (C), Unigene Rn.43232, defined direction −",+
same,"Behavior of gene caused by administration of chemical substance, Gene No. 3929","[1]; (C), Unigene Rn.4620, defined direction +",+
same,"Behavior of gene caused by administration of chemical substance, Gene No. 1119","[1]; (C), Unigene Rn.9757, defined direction +",+
same,"Behavior of gene caused by administration of chemical substance, Gene No. 6742","[1]; (C), Unigene Rn.9779, defined direction +",+
same,"Behavior of gene caused by administration of chemical substance, Gene No. 5634","[1]; (C), Unigene Rn.9862, defined direction −",+
same,"Behavior of gene caused by administration of chemical substance, Gene No. 5726","[1]; (D), Unigene Rn.9939, defined direction −",−
same,Liver carcinogenicity,liver,Cr+
same,Carcinogenicity,rodent,C+
